# Assay results taken from patent publication US4822773A (Merck & Co., Inc., priority 1987, dated 1989).
# Tests used:
# in vivo = settings: rat
# Experimental: Experiments were performed with rats wherein each animal received an aqueous microenema applied to the rectal cavity. The microenemas contained target drug entity (amount shown in table) in the presence or absence of 5 mg lauroylcholine chloride or palmitoylcholine iodide. Blood levels were monitored and the amount of drug absoreed calculated against intravenous administration and expressed as percent bioavailability.
# The amount of drug absorbed is expressed as percent bioavailability versus intravenous administration
# Blood was collected and sodium cefoxitin measured. Absorption of sodium cefoxitin is expressed as percent bioavailability versus intravenous administration.
# [1] = Small intestinal (duodenal) absorption from aqueous solution in rats, percent bioavailability versus intravenous administration; assay type: in vivo; settings: vs intravenous
# Experimental: Blood levels were monitored and the amount of polypeptide absorbed calculated against intravenous administration and expressed as percent bioavailability.
# Experiments were performed as in Example 5. The solutions contained 10 mg/kg of cefoxitin and 20 mg/kg of absorption promoters. Blood levels of cefoxitin were monitored and the bioavailability of cefoxitin absorbed was calculated against intravenous administration.
smiles,measurement,setting,value
CO[C@@]1(NC(=O)Cc2cccs2)C(=O)N2C(C(=O)O)=C(COC(N)=O)CS[C@@H]21 [Sodium cefoxitin],Percent Bioavailability (mean ± SD) with Control,in vivo,2 ± 1.1%
same,"Sodium Cefoxitin Percent Bioavailability (mean ± SD), compound None",in vivo; pH 6,2 ± 1.1%
same,"Percent Bioavailability (mean ± SD) of cefoxitin, adjuvant None","[1]; duodenal solution, 10 mg/kg cefoxitin alone",2 ± 1.1%
Cn1c(=O)c2[nH]cnc2n(C)c1=O [Theophylline],Absorption of the drug by itself,in vivo,absorbed well by itself
same,Percent Bioavailability (mean ± SD) with Control,in vivo,75 ± 3.3%
CC(C)[C@@H]1NC(=O)[C@H](CCCCN)NC(=O)[C@@H](Cc2c[nH]c3ccccc23)NC(=O)[C@H](Cc2ccc(O)cc2)NC(=O)[C@H](C)N(C)C(=O)[C@H](Cc2ccccc2)NC1=O [cyclo(N--Me--Ala--Try--DTrp--Lys--Val--Phe)acetate],bioavailability,in vivo; Percent Bioavailability (mean ± SD) with Control,7 ± 3.5%
same,bioavailability,"[1]; rat, blood, aqueous solution applied to duodenal region, 0.1 mg polypeptide alone, read-out: Percent Bioavailability (mean ± SD), adjuvant None",1%
Nc1ccn([C@@H]2O[C@H](CO)[C@@H](O)[C@@H]2O)c(=O)n1 [Cytarabine],Percent Bioavailability (mean ± SD) with Control,in vivo,0.5 ± 0.1%
